Values after ≈ are worked out from the molar mass of the structure shown.
Experiments:
[1] = Apparent maximum solubility of SHetA2 NCs and SHetA2 NC-MPs in PBS containing 0.05% SDS; format: physicochemical; details: aqueous with cosolvent or surfactant or cyclodextrin, thermodynamic from solid, at first 5 min, read-out: apparent maximum solubility (highest drug solubility)
Protocol: SHetA2 NCs, SHetA2 MPs, and SHetA2 NC-MPs in PBS containing 0.05% SDS.
Apparent Maximum Solubility of SHetA2 NCs and SHetA2 NC-MPs
The apparent maximum solubility profiles of SHetA2 NCs, SHetA2 NC-MPs, unprocessed SHetA2 (i.e., unprocessed drug), and spray dried SHetA2 MPs (i.e., microparticulate amorphous drug) are shown in FIG. 8. […] SHetA2 NC-MPs and spray dried SHetA2 MPs followed a similar dissolution profile after 45 min. […] After 6 h, SHetA2 NCs followed a similar dissolution profile with the other two formulations.

[2] = Dissolution profile (cumulative percentage of SHetA2 dissolved); format: physicochemical; details: size range 2.82-4.46 μm; level reached (NCs and NC-MPs rising until 5 h)
From the text: Cumulative percentage dissolved SHetA2 from unprocessed SHetA2, SHetA2 NCs, SHetA2 MPs, and SHetA2 NC-MPs.
Dissolution Profile of SHetA2 NC-MPs, Unprocessed SHetA2, and Spray Dried SHetA2 MPs of Size Range 2.82-4.46 μm
The mean cumulative percentage of SHetA2 dissolved versus time data for SHetA2 NCs, SHetA2 NC-MPs, spray dried SHetA2 MPs, and unprocessed SHetA2 is shown in FIG. 9. MPs in sizes 2.82-4.46 μm were studied, because the particles in this size range are deposited in the alveolar region of the lungs. […] The concentration of SHetA2 increased at a constant rate for SHetA2 NCs and SHetA2 NC-MPs until 5 h. […] In the case of spray dried SHetA2 MPs, there was a prompt release within the first 15 min, then SHetA2 concentration increased slowly until leveling at a cumulative percentage of 21.19±4.40%. In contrast, the unprocessed SHetA2 dissolved only 3.51±0.9%.

For `CC1(C)CC(C)(C)c2cc(NC(=S)Nc3ccc([N+](=O)[O-])cc3)ccc2S1` [unprocessed SHetA2], the solubility at 5 min [1] was 0.48 ± 0.11 µg/mL (≈ 1.2 µM) and the “cumulative percentage of SHetA2 dissolved” value [2] was 3.51±0.9%.

Reference: US12599562B2, “Nanocrystal microparticles of poorly soluble drugs and methods of production and use thereof” (The Board of Regents of the University of Oklahoma, priority 2017, dated 2026)
